Patent US12016939B2, “Skin treatment methods and compositions for transdermal delivery of active agents” (Topix Pharmaceuticals, Inc., priority 2020, dated 2024)

How the values were obtained:
[1] = tested on: photoaged females; assay: Investigator efficacy: facial skin appearance parameters graded on 5-point ordinal scale; format: in vivo, human; conditions: longitudinal intragroup
Excerpt: (§1) The dermatologist-investigator and subjects assessed the following facial efficacy parameters: overall severity of photodamage, dryness, lack of tactile smoothness, lack of visual smoothness, lack of softness, lack of luminosity, lack of radiance, lack of firmness, poor skin texture, fine facial wrinkles, crow's feet, dyschromia, and crepey cheek skin texture. All assessments were graded on a 5-point ordinal scale (0=none, 1=minimal, 2=mild, 3=moderate, 4=severe). […] The investigator and subjects referred to baseline images (front, right and left side images) of the subjects in completing this evaluation.
(§2) Along with descriptive statistics (means, standard deviations, and percentages), investigator ordinal nonparametric data was analyzed using the Wilcoxon signed rank test and sign test for paired comparison at different time points within and between groups. Change was considered significant at a p-value of less than or equal to 0.05.
The investigator graded facial skin appearance parameters using a 5-point ordinal scale (0=none, 1=minimal, 2=mild, 3=moderate, 4=severe) at baseline (visit 1), week 4 (visit 2), and week 8 (visit 3), and week 12 (visit 4).

[2] = tested on: photoaged females; assay: Subject efficacy: self-assessed photodamage parameters, 5-point ordinal scale; format: in vivo, human
Excerpt: as §1, §2
Subjects assessed their skin appearance across various photodamage parameters using a 5-pointordinal scale (0=none, 1=minimal, 2=mild, 3=moderate, 4=severe) at baseline, week 4, week 8, and week 12.

[3] = tested on: photoaged females; assay: Subject overall clinical improvement from baseline, 5-point scale; format: in vivo, human; conditions: after 12 weeks; scale 1=much improved to 5=worse
Excerpt: as §1

[4] = tested on: photoaged females; parameters: species or system human; conditions: in vivo
Excerpt: Clinical photography was captured at each office visit using visible light of the central, right, and left face with a VISIA CR43 camera system (Canfield Scientific, NJ). Noninvasive assessments for barrier function in the form of transepidermal water loss (TEWL) measurements were taken from the left face using Evaporimeter, Cyberderm, Broomall, PA
TEWL (Evaporimeter, Cyberderm, Broomall, PA) measurements were taken at baseline, week 8, and week 12. […] TEWL increase was 16% lower in the retinol group as compared to the tretinoin group.

[5] = tested on: photoaged females; assay: Adverse experiences and discontinuations in the clinical study
Excerpt: A single-site, double-blind controlled comparative study enrolled 45 photoaged females ages 35-65, Fitzpatrick skin types I-IV, with moderate wrinkling. Subjects who used facial retinoids within 3 months of screening, and/or facial alpha-hydroxy acids within 1 month were excluded. Subjects were randomized 2:1 into the following groups:
The 0.25% retinal serum was used twice weekly for week 1, then every other night for week 2, then every night for weeks 3 and 4. The Test Moisturizer (Lipid Replenishing Cream, TOPIX Pharmaceuticals, Inc, Amityville, NY) was placed on top of the retinal serum at each nightly application and every morning.
Cell 2: 15 subjects applied 0.025% tretinoin cream for 4 weeks. The 0.025% tretinoin cream was used twice weekly for the week 1, then every other night for week 2, then every night for weeks 3 and 4. Test Moisturizing cream (CeraVe Moisturizing Cream, L'Oreal, NY) was placed on top of the tretinoin cream (Ortho Dermatologies, NJ) at each application and every morning.

increase in TEWL ([4]; female, human, 12 weeks): 104%
Compound: CC1=C(/C=C/C(C)=C/C=C/C(C)=C/C(=O)O)C(C)(C)CCC1 [tretinoin]
luminosity, investigator ([1]; week 4): statistically significant improvement
radiance, investigator ([1]; week 4): statistically significant improvement
softness, investigator ([1]; week 4): statistically significant improvement
tactile smoothness, investigator ([1]; week 4): statistically significant improvement
visual smoothness, investigator ([1]; week 4, retinol P=0.031): no significance
firmness, investigator ([1]; week 8): statistical significance
luminosity, investigator ([1]; week 8): statistical significance
overall photoaging appearance, investigator ([1]; week 8): statistical significance
radiance, investigator ([1]; week 8): statistical significance
skin texture, investigator ([1]; week 8): statistical significance
softness, investigator ([1]; week 8): statistical significance
tactile smoothness, investigator ([1]; week 8): statistical significance
visual smoothness, investigator ([1]; week 8): statistical significance
skin dryness, investigator ([1]; week 8, retinol P<0.001): not seen
subject assessed improvement, intragroup longitudinal ([2]; all time points): experienced improvement
softness, subject ([2]; week 8, intragroup, retinol serum P<0.001): not seen until week 8
most parameters, subject ([2]; week 12, intragroup): statistical significance
subject overall clinical improvement from baseline, on average reported [3]: much-improved
barrier damage (TEWL), intragroup [4]: induced barrier damage
subjects discontinued due to retinoid tolerability issues ([5]; 12-week study, Cell 1 30 subjects, Cell 2 15 subjects): one
serious adverse events ([5]; during the conduct of the study): No serious adverse events
